Activity calls are given as the source filed them. The rule behind the calls is not given here. Where a SMILES comes first, the peptide text is derived from it.
Test system: rodent carcinogenicity bioassays, tumor incidence
Assay: CCRIS carcinogenicity studies
How it was run: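 NCI-built, expert-reviewed records of carcinogenicity and related test outcomes (mutagenicity, tumor promotion/inhibition) compiled from published and report sources, historical span 1985-2011, not updated.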

O=NC(=O)CCNCCO
carcinogen call (Species: RAT, Strain/Sex: F344/FEMALE, Route: ORAL, Dose: 0, 50 MG/L DRINKING WATER 5 D/WK FOR 50 WK (TOTAL DOSE 250 MG) (STUDY DURATION: LIFESPAN), Tumor Site: Type of Lesion: ESOPHAGUS: CARCINOMA, PAPILLOMA, TONGUE: CARCINOMA, PAPILLOMA): active; positive

CC(=O)CN(N=O)C(=O)NCCCl
carcinogen call (Species: RAT, Strain/Sex: F344/FEMALE, Route: GAVAGE, Dose: 0, 11.5 MG/ML IN CORN OIL/ETHYL ACETATE (2:1) 2/WK FOR 30 WK (STUDY DURATION: LIFETIME), Tumor Site: Type of Lesion: LIVER: TUMOR): active; positive
carcinogen call (Species: RAT, Strain/Sex: F344/FEMALE, Route: ORAL, Dose: 0, 46 MG/L IN DRINKING WATER 5 D/WK FOR 30 WK (STUDY DURATION: LIFETIME)): inactive; negative
carcinogen call (Species: RAT, Strain/Sex: F344/MALE, Route: GAVAGE, Dose: 0, 11.5 MG/ML IN CORN OIL/ETHYL ACETATE (2:1) 2/WK FOR 30 WK (STUDY DURATION: LIFETIME), Tumor Site: Type of Lesion: NERVOUS SYSTEM: TUMOR, SMALL INTESTINE: TUMOR): active; positive
carcinogen call (Species: RAT, Strain/Sex: F344/MALE, Route: ORAL, Dose: 0, 46 MG/L IN DRINKING WATER 5 D/WK FOR 30 WK (STUDY DURATION: LIFETIME), Tumor Site: Type of Lesion: LUNG: TUMOR, SKIN: TUMOR): active; positive

CN(C)c1ccccc1
carcinogen call (Species: MOUSE, Strain/Sex: B6C3F1/FEMALE, Route: GAVAGE, Dose: 0, 15, 30 MG/KG IN CORN OIL FOR 103 WK (STUDY DURATION: 105 WK), Dose: 0, 15, 30 MG/KG IN CORN OIL FOR 103 WK (STUDY DURATION: 105 WK), Tumor Site: Type of Lesion: FORESTOMACH: SQUAMOUS CELL PAPILLOMA): equivocal
carcinogen call (Species: MOUSE, Strain/Sex: B6C3F1/MALE, Route: GAVAGE, Dose: 0, 15, 30 MG/KG IN CORN OIL FOR 103 WK (STUDY DURATION: 105 WK), Dose: 0, 15, 30 MG/KG IN CORN OIL FOR 103 WK (STUDY DURATION: 105 WK)): inactive; negative
carcinogen call (Species: RAT, Strain/Sex: F344/FEMALE, Route: GAVAGE, Dose: 0, 3, 30 MG/KG IN CORN OIL 5 D/WK FOR 103 WK (STUDY DURATION: 105 WK), Dose: 0, 3, 30 MG/KG IN CORN OIL 5 D/WK FOR 103 WK (STUDY DURATION: 105 WK)): inactive; negative
carcinogen call (Species: RAT, Strain/Sex: F344/MALE, Route: GAVAGE, Dose: 0, 3, 30 MG/KG IN CORN OIL 5 D/WK FOR 103 WK (STUDY DURATION: 105 WK), Dose: 0, 3, 30 MG/KG IN CORN OIL 5 D/WK FOR 103 WK (STUDY DURATION: 105 WK), Tumor Site: Type of Lesion: SPLEEN: SARCOMA, SARCOMA OR OSTEOSARCOMA): active; positive

COC(=O)c1c(Cl)c(Cl)c(C(=O)OC)c(Cl)c1Cl
carcinogen call (Species: Mouse, Strain/Sex: CD-1/Female (60/group), Route: Oral, Dose: 0, 100, 1,000, 3,500, 7,500 ppm in diet for 2 yr, Dose: 0, 100, 1,000, 3,500, 7,500 ppm in diet for 2 yr, Tumor Site: Type of Lesion: Liver: Hepatocellular tumors (Significant only at highest dose)): active; positive (study details not given in source; purity 96.7%)
carcinogen call (Species: Mouse, Strain/Sex: CD-1/Male (60/group), Route: Oral, Dose: 0, 100, 1,000, 3,500, 7,500 ppm in diet for 2 yr, Dose: 0, 100, 1,000, 3,500, 7,500 ppm in diet for 2 yr): inactive; negative (study details not given in source; purity 96.7%)
carcinogen call (Species: Rat, Strain/Sex: Sprague-Dawley/Female (60/group), Route: Oral, Dose: 0, 1, 10, 50, 500, 1,000 mg/kg/day in diet for 2 yr, Dose: 0, 1, 10, 50, 500, 1,000 mg/kg/day in diet for 2 yr, Tumor Site: Type of Lesion: Thyroid: Follicular cell adenomas. Liver: Hepatocellular tumors): active; positive (as evaluated by ca dpr; study details not given in source; purity 97.7
carcinogen call (Species: Rat, Strain/Sex: Sprague-Dawley/Male (60/group), Route: Oral, Dose: 0, 1, 10, 50, 500, 1,000 mg/kg/day in diet for 2 yr, Dose: 0, 1, 10, 50, 500, 1,000 mg/kg/day in diet for 2 yr, Tumor Site: Type of Lesion: Thyroid: Follicular cell adenomas): active; positive (evaluated as adverse effect by ca dpr; study details not given in sour

Nc1ccccc1-c1ccccc1
carcinogen call (Species: MOUSE, Strain/Sex: B6C3F1/FEMALE, Route: ORAL, Dose: 0, 1000, 3000 PPM IN DIET FOR 103 WK (STUDY DURATION: 103 WK), Dose: 0, 1000, 3000 PPM IN DIET FOR 103 WK (STUDY DURATION: 103 WK), Tumor Site: Type of Lesion: BLOOD VESSELS: HEMANGIOMA, HEMANGIOSARCOMA): active; positive
carcinogen call (Species: MOUSE, Strain/Sex: B6C3F1/MALE, Route: ORAL, Dose: 0, 1000, 3000 PPM IN DIET FOR 103 WK (STUDY DURATION: 103 WK), Dose: 0, 1000, 3000 PPM IN DIET FOR 103 WK (STUDY DURATION: 103 WK), Tumor Site: Type of Lesion: SPLEEN: HEMANGIOSARCOMA): equivocal
carcinogen call (Species: RAT, Strain/Sex: F344/FEMALE, Route: ORAL, Dose: 0, 1000, 3000 PPM IN DIET FOR 103 WK (STUDY DURATION: 103 WK), Dose: 0, 1000, 3000 PPM IN DIET FOR 103 WK (STUDY DURATION: 103 WK)): inactive; negative
carcinogen call (Species: RAT, Strain/Sex: F344/MALE, Route: ORAL, Dose: 0, 1000, 3000 PPM IN DIET FOR 103 WK (STUDY DURATION: 103 WK), Dose: 0, 1000, 3000 PPM IN DIET FOR 103 WK (STUDY DURATION: 103 WK)): inactive; negative

COC(=O)[C@H](Cc1ccccc1)NC(=O)[C@@H](N)CC(=O)O (H-Asp-Phe-OMe)
carcinogen call (Species: MOUSE, Strain/Sex: SWISS/FEMALE, Route: INTRAVESICULAR, Dose: 0, 4-4.4 MG IN CHOLESTEROL PELLET (STUDY DURATION: 26 WK)): inactive; negative
carcinogen call (Species: MOUSE, Strain/Sex: SWISS/FEMALE, Route: INTRAVESICULAR, Dose: 0, 4-4.4 MG IN CHOLESTEROL PELLET (STUDY DURATION: 56 WK)): inactive; negative

C1CC2OC2CC1C1CO1 (stereo not drawn)
carcinogen call (Species: MOUSE, Route: DERMAL, Tumor Site: Type of Lesion: INTEGUMENTARY SYSTEM (SKIN)): active; positive
carcinogen call (Species: MOUSE, Strain/Sex: B6C3F1/FEMALE, Route: DERMAL, Dose: 0, 2.5, 5, 10 MG/MOUSE IN ACETONE 5 D/WK FOR 103 WK, HIGH DOSE FEMALE MICE 85 WK (STUDY DURATION: 105 WK), Dose: 0, 2.5, 5, 10 MG/MOUSE IN ACETONE 5 D/WK FOR 103 WK, HIGH DOSE FEMALE MICE 85 WK (STUDY DURATION: 105 WK), Tumor Site: Type of Lesion: LUNG: ALVEOLAR/BRONCHIOLAR ADENOMA OR CARCINOMA, OVARY: GRANULOSA CELL TUMOR, GRANULOSA CELL TUMOR OR MALIGNANT GRANULOS): active; positive
carcinogen call (Species: MOUSE, Strain/Sex: B6C3F1/MALE, Route: DERMAL, Dose: 0, 2.5, 5, 10 MG/MOUSE IN ACETONE 5 D/WK FOR 103 WK (STUDY DURATION: 105 WK), Dose: 0, 2.5, 5, 10 MG/MOUSE IN ACETONE 5 D/WK FOR 103 WK (STUDY DURATION: 105 WK), Tumor Site: Type of Lesion: SKIN (APPLICATION SITE): BASOSQUAMOUS TUMOR MALIGNANT, BASOSQUAMOUS TUMOR MALIGNANT OR BASAL CELL CARCINOMA, SQUAMOUS CE): active; positive
carcinogen call (Species: RAT, Strain/Sex: F344/FEMALE, Route: DERMAL, Dose: 0, 15, 30 MG/RAT IN ACETONE 5 D/WK FOR 105 WK (STUDY DURATION: 106 WK), Dose: 0, 15, 30 MG/RAT IN ACETONE 5 D/WK FOR 105 WK (STUDY DURATION: 106 WK), Tumor Site: Type of Lesion: SKIN (APPLICATION SITE): BASAL CELL CARCINOMA, SEBACEOUS GLAND ADENOMA OR BASAL CELL CARCINOMA, SQUAMOUS CELL CARCINOMA): active; positive
carcinogen call (Species: RAT, Strain/Sex: F344/MALE, Route: DERMAL, Dose: 0, 15, 30 MG/RAT IN ACETONE 5 D/WK FOR 105 WK (STUDY DURATION: 106 WK), Dose: 0, 15, 30 MG/RAT IN ACETONE 5 D/WK FOR 105 WK (STUDY DURATION: 106 WK), Tumor Site: Type of Lesion: SKIN (APPLICATION SITE): BASAL CELL ADENOMA, BASAL CELL CARCINOMA, BASAL CELL ADENOMA OR SEBACEOUS GLAND ADENOMA, SQUAMO): active; positive

O=C(O)CCCCCCCCC(=O)O
carcinogen call (Species: RABBIT, Strain/Sex: NEW ZEALAND/FEMALE, Route: ORAL, Dose: 0, 750, 1000 MG/KG/BW IN DIET FOR 6 MO (STUDY DURATION: 181 D), Dose: 0, 750, 1000 MG/KG/BW IN DIET FOR 6 MO (STUDY DURATION: 181 D)): inactive; negative
carcinogen call (Species: RABBIT, Strain/Sex: NEW ZEALAND/MALE, Route: ORAL, Dose: 0, 750, 1000 MG/KG/BW IN DIET FOR 6 MO (STUDY DURATION: 181 D), Dose: 0, 750, 1000 MG/KG/BW IN DIET FOR 6 MO (STUDY DURATION: 181 D)): inactive; negative
carcinogen call (Species: RAT, Strain/Sex: WISTAR/FEMALE, Route: ORAL, Dose: 0, 500, 1000 MG/KG/BW IN DIET FOR 6 MO (STUDY DURATION: 181 D), Dose: 0, 500, 1000 MG/KG/BW IN DIET FOR 6 MO (STUDY DURATION: 181 D)): inactive; negative
carcinogen call (Species: RAT, Strain/Sex: WISTAR/MALE, Route: ORAL, Dose: 0, 500, 1000 MG/KG/BW IN DIET FOR 6 MO (STUDY DURATION: 181 D), Dose: 0, 500, 1000 MG/KG/BW IN DIET FOR 6 MO (STUDY DURATION: 181 D)): inactive; negative

From PubChem BioAssay AID1259411 (Chemical Carcinogenesis Research Information System (CCRIS), 2018)
